Laboratory results as given in patent US12577273B2, “Small molecule modulators of gut bacterial bile acid metabolism” (priority 2019, dated 2026).
“Also recorded” adds a separate entry of the source. Where two headings read alike, the source gives them in different places.

What was measured:
C57BL/6 mice [1] = conditions: for detection in circulating plasma: in vivo
conventional mice = assay: Food intake of conventional mice dosed with 3S-LCA-FMK; format: in vivo, mouse; conditions: compared to mice dosed with vehicle
[2] = tested on: BSH activity in conventional mouse feces; assay: Screen of inhibitors in conventional mouse feces; format: biochemical
Description: Screen of Inhibitors in Conventional Mouse Feces. […] The tubes were then frozen in dry ice for 5 mins and upon thawing were diluted with an equal volume of methanol. […] The supernatant was removed into a clean eppendorf tube and centrifuged again. […] The concentration of product detected from these assays was reported directly.

NCI-H716 cells = assay: Off-target profiling in mammalian cells using 7-N3; format: cell-based, human
Description: Off-Target profiling in Mammalian Cells using 7-N3. The human epithelial cell line NCI-H716 was used to study interactions with mammalian proteins. 10 μM 7-N3 (10 mM stock in DMSO) or 1 uL DMSO (for control) were added to ˜8×10^6 cells in 1 ml DPBS (HiMedia) and incubated for 1 h. Cells were collected in 15 ml Falcon tubes and washed 2 times in 15 ml DBPS by centrifugation at 500 g for 5 mins. A 3rd wash by centrifugation was performed in 1 mM solution of cOmplete™ Protease Inhibitor Cocktail (Roche, Switzerland) in DPBS. Cells were resuspended in 250 ul of DPBS with 1 mM cOmplete™ Protease Inhibitor Cocktail and sonicated at 50% amplitude for 2 secs followed by 30 secs on ice for 3 cycles. The lysate was centrifuged at 15,000 g for 15 mins at 4° C. The supernatant was removed and protein concentration was measured by Bradford assay. The lysates were then subjected to click reaction as per “Click Chemistry for In-gel Fluorescence Imaging” for in-gel fluorescence and “Click Chemistry for MS/MS on Mammalian Lysate” for mass spectrophotometer-based quantification and identification.
Click Chemistry for In-gel Fluorescence Imaging. Click reactions were performed on 25 μL scale. […]
Proteomic Analysis of Click-Tagged Proteins. […] Indicated bands were excised, subjected to in-gel digestion, and extracted peptides analyzed by nanoflow LC-MS/MS as described.^53

B. adolescentis BSH = assay: Target validation and off-target profiling in B. adolescentis using 7-N3; format: cell-based, Bifidobacterium adolescentis L2-32
Description: Target Validation and Off-target Profiling in B. adolescentis using 7-N3. Pilot studies with 7-N3 were performed using B. adolescentis (Gram positive) and B. theta (Gram negative). We chose to use B. adolescentis due to the stronger total fluorescent signal detected by-in gel fluorescence. […] Cultures were allowed to grow anaerobically at 37° C. for 21 h. 10 μM 7-N3 (10 mM stock in DMSO) or […] DMSO (to control tubes) was then added to the cultures and incubated anaerobically at 37° C. for 1 h. The cultures were centrifuged at 2,500 g at 4° C. for 15 mins. The media was decanted and cells were resuspended in PBS containing 1 mM TCEP and 1 mM PMSF and centrifuged 4,200 rpm at 4° C. for 15 mins. The buffer was decanted and the cells were suspended in 300 μL of fresh buffer and transferred to homogenizing tubes (Precellys lysing kit tough micro-organism lysing VK05 tubes) with ceramic beads. The suspension was then homogenized (5000 speed for 90 s*2, 6500 speed for 60 s) and spun down for 20 min at 15,000 g at 4° C. The supernatant was removed and the concentration of proteins in the lysate was quantified by Bradford assay. The lysates were then subjected to click reaction as per “Click Chemistry for In-gel Fluorescence Imaging” for fluorescence imaging and “Click Chemistry for MS/MS on Bacterial Lysate” for mass spectrophotometer-based quantification and identification.
Cultures were allowed to grow anaerobically at 37° C. for 21 h. Decreasing concentrations of 7 were added to different tubes and the cultures were incubated anaerobically at 37° C. for 1 h. 10 μM 7-N3 was then added to the cultures and incubated anaerobically at 37° C. for an additional hour. The cultures were further processed as per the reported method in “Target Validation and Off-target Profiling in B. adolescentis using 7-N3” and “Click Chemistry for In-gel Fluorescence Imaging”.
Click Chemistry for In-gel Fluorescence Imaging. Click reactions were performed on 25 μL scale. Lysates (normalized to 1.5 mg/mL for both bacterial and mammalian cells) pretreated with 10 μM Compound 7-N3 were incubated with 100 μM fluor 488-alkyne (10 mM stock in DMSO), 100 μM CuBr (5 mM stock in DMSO), and 100 μM Tris[(1-benzyl-1H-1,2,3-triazol-4-yl)methyl]amine (5 mM stock in 4:1 t-BuOH:DMSO) for 1 h at 37° C. in the dark. 10 μL of 2×Laemmli buffer (containing 5% β-mercaptoethanol) was added to the reactions and the tubes were heated at 95° C. for 10 mins. 15 μL of the protein samples were then resolved by 10% SDS-PAGE. The ladder was diluted 100-fold and 10 μL was loaded. Gels were destained for 30 mins using 40% methanol, 50% acetic acid, 10% water and visualized using Bio-Rad ChemiDoc MP Imaging System. Gels were stained for 20 mins in Coomassie blue and destained for 2 h prior to imaging.
Click Chemistry for MS/MS on Bacterial Lysate. Click reactions were performed on 100 μL scale. Lysates (normalized to 1.3 mg/mL) pretreated with 10 μM 7-N3 were incubated with 100 μM desthiobiotin-PEG4-alkyne (10 mM stock in DMSO), 1 mM CuBr (50 mM stock in DMSO), and 1 mM Tris[(1-benzyl-1H-1,2,3-triazol-4-yl)methyl]amine (50 mM stock in 4:1 t-BuOH:DMSO) for 1 h at 37° C. The samples were then processed for further analysis as per “Proteomic Analysis of Click-Tagged Proteins”.
Proteomic Analysis of Click-Tagged Proteins.

[3] = tested on: differentiated Caco-2 cells; assay: Epithelial permeability assay (4 kDa FITC-dextran)
C57BL/6 mice [4] = conditions: mouse, in vivo
Description: Animal Studies. C57BL/6 mice obtained from Jackson laboratories were maintained under a strict 12 h/12 h light/dark cycle and a constant temperature (21±1° C.) and humidity (55-65%). All experiments were conducted on 8-9 week old male mice.
Mice were fed powdered standard chow diet (LabDiet, catalog no. 5053) for the duration of the experiment. Mice were split into two groups of ten mice each and were maintained on powdered chow (control group) or fed powdered chow containing 0.09% (w/w) GR-7 (experimental group). Feces from these mice were collected as described above at 8 h. Mice were euthanized after 30 hours of access to the powdered chow with or without GR-7 using carbon dioxide. Blood samples were collected by cardiac puncture and placed in EDTA-coated tubes on ice. The liver and cecal contents were then collected from each mouse, snap frozen in liquid nitrogen, and stored at −80° C. until further analysis. […]
BSH Activity in Feces. BSH activity in fecal pellets were quantified using a modified version of a published method.^45 Fecal pellets (approximately 10-20 mg) were suspended in buffer (10% PBS, 90% sodium acetate at pH 5.2) containing 100 μM (GCDCA-d4) to obtain a concentration of 20 mg/mL. […] The concentration of product detected from these assays were reported directly.
Quantification of Bile Acids in Tissues and Plasma. […]
Quantification of bacterial 16S rDNA copy number. […]

With `C[C@H](CCC(=O)CF)[C@H]1CC[C@H]2[C@@H]3CC[C@@H]4C[C@H](OS(=O)(=O)O)CC[C@]4(C)[C@H]3CC[C@]12C` [Compound 3S-LCA-FMK, 3-sulfated-lithocholic acid-fluoromethyl ketone] the “BSH activity in feces” value (C57BL/6 mice [1]; 0.03% weight/weight in chow ad libitum for 7 days) was “significantly reduced”, the “detection in circulating plasma” value (C57BL/6 mice [1]; male, C57Bl/6, mouse) was “No 3S-LCA-FMK was detectable” and the “detection in circulating plasma” value (C57BL/6 mice [1]; mouse) was “not detectable”. The food intake (conventional mice) was “significant decrease in food consumption; also recorded: reduces food intake”.

With `C[C@H](CCC(=O)CF)[C@H]1CC[C@H]2[C@@H]3[C@H](O)C[C@@H]4C[C@H](N=[N+]=[N-])CC[C@]4(C)[C@H]3CC[C@]12C` [Compound 7-N3] the “BSH inhibition in conventional mouse feces (in words)” value ([2]; 7-N3, concentration not given) was “significant BSH inhibition; also recorded: potently inhibited BSH activity in mouse feces”, the “in-gel fluorescence labeling in NCI-H716 cells” value (NCI-H716 cells; 10 μM, 1 h, click with Fluor 488-alkyne) was “no significant labeling of proteins; also recorded: no enrichment of any band” and the “enrichment of proteins in probe-treated NCI-H716 lysates” value (NCI-H716 cells; label-free LC-MS/MS) was at most 2 fold. For the same compound, the “in-gel fluorescence labeling in B. adolescentis L2-32” value (B. adolescentis BSH; 10 μM, 1 hour, click with Fluor 488-alkyne) was “labeling of only one protein; also recorded: Only one fluorescent band was visible”, the “enrichment of BSH in gel bands, probe- versus vehicle-treated cultures” value (B. adolescentis BSH; desthiobiotin-alkyne, streptavidin pulldown, in-gel digestion, LC-MS/MS, semi-quantitative) was 4.5 fold and the “enrichment of other bacterial proteins” value (B. adolescentis BSH; label-free LC-MS/MS, biological triplicate) was at most 2 fold. The “enrichment of BSH in probe-treated cultures” value (B. adolescentis BSH; on-bead digestion, label-free LC-MS/MS) was 3.6 fold.

For `C[C@H](CCC(=O)CF)[C@H]1CC[C@H]2[C@@H]3[C@H](O)C[C@@H]4C[C@H](OS(=O)(=O)[O-])CC[C@]4(C)[C@H]3CC[C@]12C.[Na+]` [GR-7], the “BSH inhibition in mouse fecal slurry (in words)” value ([2]; 20 μM or 60 μM of GR-7, 30 mins, GCDCA-d4 100 μM, 18 hours) was “remains a potent pan-BSH inhibitor; also recorded: inhibited BSH activity in a fecal slurry”, the “epithelial barrier integrity of Caco-2 cells” value ([3]; 60 μM) was “did not affect epithelial barrier integrity” and the “epithelial monolayer integrity (passive diffusion of 4 kDa FITC-dextran)” value ([3]; differentiated Caco-2, apical chamber, 6 or 12 h) was “did not compromise epithelial monolayer integrity”. For the same compound, the detection in feces (C57BL/6 mice [4]) was “detected” and the “microbial biomass (16S rDNA copies/g in cecal contents)” value (C57BL/6 mice [4]) was “did not affect microbial biomass”.
